The structures appear in SMILES notation.

The test concerns the target Isocitrate dehydrogenase [NADP] cytoplasmic (Homo sapiens, UniProt O75874, R132H). As to the kind of experiment: Inhibition of IDH1 R132H mutant (unknown origin).

Sequence of Isocitrate dehydrogenase [NADP] cytoplasmic (O75874 2-414 R132H limits assumed): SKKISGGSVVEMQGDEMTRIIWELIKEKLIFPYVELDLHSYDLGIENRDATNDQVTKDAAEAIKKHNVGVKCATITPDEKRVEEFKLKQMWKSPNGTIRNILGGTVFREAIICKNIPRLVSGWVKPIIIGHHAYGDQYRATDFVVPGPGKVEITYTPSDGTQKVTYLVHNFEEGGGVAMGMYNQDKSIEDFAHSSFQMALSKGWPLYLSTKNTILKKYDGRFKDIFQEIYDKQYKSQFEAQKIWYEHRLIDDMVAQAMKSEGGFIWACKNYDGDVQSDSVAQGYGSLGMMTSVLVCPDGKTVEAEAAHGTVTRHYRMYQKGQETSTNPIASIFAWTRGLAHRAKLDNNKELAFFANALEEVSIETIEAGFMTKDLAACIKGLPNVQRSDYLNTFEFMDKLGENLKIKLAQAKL

In the case of `O=C(NC1CCCCC1)[C@@H](c1ccccc1)N(C(=O)Cc1cccs1)c1cccc(F)c1`, the IC50 was over 11 µM.

A word on the IC50: it is the concentration at which inhibition is half-maximal. Higher therefore signals a need for much substance.

The values above are taken from ChEMBL document CHEMBL5257096, “Accelerating Drug Discovery: Synthesis of Complex Chemotypes via Multicomponent Reactions” (ACS Med Chem Lett, 2023).
